Measurements as given in paper PMC4666608, “Metabolic Profiling of Chicken Embryos Exposed to Perfluorooctanoic Acid (PFOA) and Agonists to Peroxisome Proliferator-Activated Receptors” (PLoS ONE, 2015).
Where “and” joins values, the source holds several entries; their conditions need not be identical. Equal entries are not always repeated. Where two headings read alike, the source gives them in different places.

Legend:
[1] = test system: chicken embryos; assay: Embryo mortality after in ovo exposure (air sac injection E7, examined E12); assay type: in vivo, Gallus gallus domesticus
Description: (§1) Controls were injected with 20 μL vehicle only (DMSO).
Embryos were dissected and sampled on E12. The treatment group was concealed to the one carrying out embryo dissections and the order of dissection of the embryos was randomized. The embryos were examined for viability and gross morphology, e.g. appearance of the liver. The sex was determined by the presence of a pair of testes or an ovary.
Mortality rates were analyzed with Fisher’s exact test.

[2] = test system: chicken embryos; assay: Plasma lipids (total, LDL, HDL cholesterol, triacylglycerols), photometric; conditions: for HDL-C in plasma, mean ± SD / LDL-C in plasma, mean ± SD / LDL/HDL in plasma, mean ± SD / Total cholesterol in plasma, mean ± SD / Triacylglycerols in plasma, mean ± SD: E12; for LDL/HDL: plasma
Description: The experimental procedures in this study were approved by the Uppsala Ethical Committee for Research on Animals (Permit number C 211/12). Fertilized chicken eggs (Gallus gallus domesticus) were obtained from a local breeder (Ova Production AB, Vittinge, Sweden). The egg weights were 60 ± 4 g (mean and standard deviation). The eggs were incubated at 37.5°C and 60% relative humidity with automatic turning every six hours. The day the eggs were placed in the incubator was defined as embryonic day zero (E0). Chicken embryos were exposed to test substances by air sac injection in eggs incubated for seven days (E7). At this stage, the extraembryonic allantoic blood vessel network has grown to cover the inner shell membrane beneath the air sac and the injected substance will come in direct contact with the vascular network. The exposures were performed as follows: Unfertilized eggs and poorly developing embryos were recognized by candling and were sorted out. Eggs with embryos of normal size were collected and randomly distributed into the different treatment groups. On E7, the blunt end of each egg was wiped with alcohol and a small hole was drilled through the shell above the air sac. The dissolved test substance (20 μl) was deposited onto the inner shell membrane in the air sac and the hole was sealed with melted paraffin wax. Following injection, eggs were held horizontally and rotated for a few seconds to allow dispersal over the inner shell membrane in the air sac. Each egg was marked with a number specifying the treatment group and was placed at a random location in the incubator.
The doses were 150 μg/egg (approximately 2.5 mg/kg egg) for GW7647 and rosiglitazone and 50, 250 or 1000 μg/egg for PFOA (approximately 0.83, 4.2 and 18 mg/kg egg, respectively). Controls were injected with 20 μL vehicle only (DMSO). Due to the large number of embryos required, the experiment was divided into four replicate experiments (replicate A-D) performed the same way but on separate occasions. The number of exposed embryos was 10–15 for each treatment group and replicate.
A subset of randomly chosen embryos from each group (except the 1000 μg/egg group) was sampled for metabolomic analysis of allantoic fluid and blood plasma. Samples of allantoic fluid and blood were collected before decapitation and dissection of the embryo as described below. The egg shell was removed above the air cell without disrupting the inner shell membrane. Allantoic fluid was collected by gently inserting a needle through the inner shell membrane and into the allantoic sac and then aspiring the fluid with a syringe. The samples were placed in microtubes on ice during sampling and then stored at -70°C until processed for metabolomic analysis. Blood was collected from the allantoic artery, just proximal to its first branch. The artery was gently cleaned from membranes, lifted with a small spoon and then punctured with a needle. Blood flowing into the spoon was immediately collected with heparinized capillaries. Blood was stored in heparinized microtubes on ice during sampling and was then centrifuged at a speed of 1300g for 10 min at 4°C. Plasma was collected and stored at -70°C. The embryos were killed by decapitation and dissected immediately following blood sampling.
Total cholesterol, low-density lipoprotein (LDL) cholesterol, high-density lipoprotein (HDL) cholesterol, and triacylglycerols in plasma were analyzed with an Architect c8000 (Abbott Diagnostics, Abbott Park, IL, USA), using a photometric method, at the department of Clinical Chemistry and Pharmacology, Uppsala University Hospital, Sweden. The laboratory is accredited according to EN/ISO 15189 medical laboratory requirements. A total of 80 samples were analyzed; control: 7 females and 8 males; GW7647: 7 females and 8 males; rosiglitazone: 5 females and 12 males; 50 μg PFOA/egg: 11 females and 6 males; 250 μg PFOA/egg: 10 females and 6 males.

[3] = Determination of PFOA in liver (UPLC-MS/MS); assay type: in vivo, Gallus gallus domesticus; conditions: for concentration at 5 days: chicken (Gallus gallus domesticus) embryo, other: air sac injection into the egg, 1000 µg/egg; for concentration at 5 days / concentration at 5 d: liver; for concentration at 5 d: chicken, other: air sac injection in ovo
Description: as §1
The concentration of PFOA was analyzed in liver and blood plasma from control embryos and embryos exposed to PFOA (50, 250 and 1000 μg/egg). Five individual livers from each PFOA-treated group were analyzed. Very low PFOA concentrations were anticipated in the controls and therefore the amount of tissue was increased by pooling 2–3 livers, and five such pools were analyzed. Four plasma samples (50 μL) were analyzed from each group except the group exposed to 1000 μg PFOA/egg for which three samples were analyzed. Extraction blanks were included for each batch. The analyzed amount of liver homogenate was 100 mg for controls and 50 mg for PFOA-exposed embryos. Livers were homogenized using the bead mill Bullet Blender® Storm 24 (Next Advance, Inc. New York, USA) with stainless steel beads at speed 8 for 3 min. Plasma and liver samples were spiked with 50 ng of internal standard (^13C4-PFOA, Wellington, Guelph, Canada). Five milliliters of acetonitrile (Labscan, Gliwice, Poland) was added to the samples followed by vortex mixing, sonication (20 min), and centrifugation (10 000 g, 5 min). Extraction was performed twice for livers and once for plasma. One mL of supernatant from the extracts was transferred to a tube prepared with 50 mg ENVI-Carb™ 20/400 mesh (Supelco, Bellefonte, PA, USA) and 100 μL glacial acetic acid (Sigma-Aldrich). The carbon suspension was vortex mixed and then filtrated using a 0.2-μm GHP filter (Pall, East Hills, NY, USA). Filtrate (0.4 mL) was mixed with 2 ng of the recovery standard (^13C8-PFOA, Wellington Laboratories) and 0.6 mL 2 mM ammonium acetate was added. Analysis was performed using an Acquity UPLC coupled to a Xevo-TQS MS/MS (Waters Corporation, Milford, MA, USA) as described previously. The recovery standard ^13C8-PFOA was added before injection to assess the recoveries of the internal standard ^13C4-PFOA. The recoveries ranged between 75 and 94% (average 82%) for plasma and between 64 and 119% (average 84%) for liver.

[4] = in ovo injection E7, sampled E12, PFOA 50 μg/egg
[5] = in ovo injection E7, sampled E12, PFOA 250 μg/egg
[6] = in ovo injection E7, sampled E12, PFOA 1000 μg/egg
[7] = group PFOA 50 (µg/egg), group mean
[8] = group PFOA 50 (µg/egg), individual embryos
[9] = group PFOA 250 (µg/egg), group mean
[10] = group PFOA 250 (µg/egg), individual embryos

Structure (SMILES): O=C(O)C(F)(F)C(F)(F)C(F)(F)C(F)(F)C(F)(F)C(F)(F)C(F)(F)F [PFOA, perfluorooctanoic acid]
- Mortality rate ([1]; PFOA 1000 μg/egg, replicate A): 40%
- Mortality rate ([1]; PFOA 1000 μg/egg, replicate B): 60%
- Mortality rate ([1]; PFOA 1000 μg/egg, replicate C): 33%
- Mortality rate ([1]; PFOA 1000 μg/egg, replicate D): 7%
- Dose with increased mortality ([1]; exposed E7 to E12): 18 mg/kg egg
- Dose with no effect on survival (no effect level) ([1]; exposed E7 to E12): 4.2 mg/kg egg
- Mortality ([1]; follow-up study, PFOA 1000 μg/egg, N = 25, control 12%): 40%
- Mortality rate [1, 4]: 5%
- Mortality rate, Ratio [1, 4]: 2/40
- Mortality rate [1, 5]: 2.5%
- Mortality rate, Ratio [1, 5]: 1/40
- Mortality rate [1, 6]: 35% and 35 ^*** %
- Mortality rate, Ratio [1, 6]: 19/54
- HDL-C in plasma, mean ± SD ([2]; PFOA 50 μg/egg): 0.59 ± 0.06 mM
- LDL-C in plasma, mean ± SD ([2]; PFOA 50 μg/egg): 1.5 ± 0.2 mM
- LDL/HDL in plasma, mean ± SD ([2]; PFOA 50 μg/egg): 2.5 ± 0.3
- Total cholesterol in plasma, mean ± SD ([2]; PFOA 50 μg/egg): 5.2 ± 0.8 mM
- Triacylglycerols in plasma, mean ± SD ([2]; PFOA 50 μg/egg): 5.0 ± 0.8 mM
- HDL-C in plasma, mean ± SD ([2]; PFOA 250 μg/egg): 0.57 ± 0.05 mM
- LDL-C in plasma, mean ± SD ([2]; PFOA 250 μg/egg): 1.5 ± 0.3 mM
- LDL/HDL in plasma, mean ± SD ([2]; PFOA 250 μg/egg): 2.6 ± 0.5
- Total cholesterol in plasma, mean ± SD ([2]; PFOA 250 μg/egg): 5.0 ± 0.5 mM
- Triacylglycerols in plasma, mean ± SD ([2]; PFOA 250 μg/egg): 5.0 ± 0.7 mM
- HDL-Cholesterol in plasma [2, 7]: 0.59 mM
- LDL-Cholesterol in plasma [2, 7]: 1.5 mM
- Total Cholesterol in plasma [2, 7]: 5.2 mM
- Triacylglycerols in plasma [2, 7]: 5.0 mM
- LDL/HDL [2, 7]: 2.5
- HDL-Cholesterol in plasma [2, 8]: 0.63 mM and 0.53 mM and 0.55 mM and 0.69 mM and 0.59 mM and 0.56 mM and 0.65 mM and 0.49 mM and 0.62 mM and 0.64 mM and 0.48 mM and 0.58 mM
- LDL-Cholesterol in plasma [2, 8]: 1.90 mM and 1.20 mM and 1.50 mM and 1.80 mM and 1.40 mM and 1.30 mM and 1.60 mM and 1.00 mM
- Total Cholesterol in plasma [2, 8]: 6 mM and 4.6 mM and 5.1 mM and 5.7 mM and 5.9 mM and 5 mM and 5.4 mM and 6.1 mM and 3.8 mM and 5.3 mM and 4.3 mM and 4.2 mM and 4.1 mM
- Triacylglycerols in plasma [2, 8]: 6 mM and 4.8 mM and 5.1 mM and 5.7 mM and 5 mM and 4.9 mM and 5.4 mM and 4.5 mM and 6.2 mM and 4.2 mM and 3.6 mM and 3.5 mM
- LDL/HDL [2, 8]: 3.0 and 2.3 and 2.7 and 2.9 and 2.2 and 2.4 and 2.1 and 2.0 and 2.6 and 3.1 and 2.5
- HDL-Cholesterol in plasma [2, 9]: 0.57 mM
- LDL-Cholesterol in plasma [2, 9]: 1.5 mM
- Total Cholesterol in plasma [2, 9]: 5.0 mM
- Triacylglycerols in plasma [2, 9]: 5.0 mM
- LDL/HDL [2, 9]: 2.6
- HDL-Cholesterol in plasma [2, 10]: 0.52 mM and 0.54 mM and 0.49 mM and 0.56 mM and 0.55 mM and 0.57 mM and 0.51 mM and 0.64 mM and 0.58 mM and 0.61 mM and 0.63 mM and 0.53 mM and 0.6 mM
- LDL-Cholesterol in plasma [2, 10]: 2.20 mM and 1.40 mM and 1.50 mM and 1.10 mM and 1.20 mM and 1.80 mM and 1.30 mM and 1.70 mM and 1.60 mM
- Total Cholesterol in plasma [2, 10]: 5.2 mM and 4 mM and 4.9 mM and 5.7 mM and 5 mM and 5.4 mM and 4.2 mM and 4.4 mM and 4.7 mM and 5.1 mM
- Triacylglycerols in plasma [2, 10]: 5.1 mM and 5.7 mM and 3.8 mM and 4.5 mM and 6 mM and 4.7 mM and 5.4 mM and 4.8 mM and 4.2 mM and 4.9 mM
- LDL/HDL [2, 10]: 4.2 and 2.6 and 2.9 and 2.7 and 2.0 and 2.4 and 2.8 and 2.1 and 1.7 and 2.2
- Concentration in liver ([3]; PFOA 50 µg/egg, chicken embryo liver, individual embryos): 1067 ng/g and 1343 ng/g and 1269 ng/g and 1059 ng/g
- Concentration in liver ([3]; PFOA 250 µg/egg, chicken embryo liver, individual embryos): 3843 ng/g and 2549 ng/g and 3327 ng/g and 3144 ng/g
- Concentration in liver ([3]; PFOA 1000 µg/egg, chicken embryo liver, individual embryos): 11372 ng/g and 14202 ng/g and 9187 ng/g and 10517 ng/g
- concentration at 5 days ([3]; PFOA 1000 µg/egg, chicken embryo liver, group mean (n=5), read-out: Concentration in liver, Mean): 10800 ng/g
- concentration at 5 days ([3]; PFOA 1000 µg/egg, chicken embryo liver, individual embryos, read-out: Concentration in liver): 8570 ng/g
- concentration at 5 d ([3]; 50 μg/egg, E12, 50 μg PFOA/egg on E7, read-out: Mean PFOA concentration in liver): 1100 ng/g
- concentration at 5 d ([3]; 50 µg/egg, PFOA 50 µg/egg, chicken embryo liver, group mean (n=5), read-out: Concentration in liver, Mean): 1180 ng/g
- concentration at 5 d ([3]; 50 µg/egg, PFOA 50 µg/egg, chicken embryo liver, individual embryos, read-out: Concentration in liver): 1170 ng/g
- concentration at 5 d ([3]; 250 μg/egg, E12, 250 μg PFOA/egg on E7, read-out: Mean PFOA concentration in liver): 3600 ng/g
- concentration at 5 d ([3]; 250 µg/egg, PFOA 250 µg/egg, chicken embryo liver, group mean (n=5), read-out: Concentration in liver, Mean): 3580 ng/g
- concentration at 5 d ([3]; 250 µg/egg, PFOA 250 µg/egg, chicken embryo liver, individual embryos, read-out: Concentration in liver): 5060 ng/g
- concentration at 5 d ([3]; 1000 μg/egg, E12, 1000 μg PFOA/egg on E7, read-out: Mean PFOA concentration in liver): 11000 ng/g
